Measurements reported in patent US20120316203A1, “Compositions and Methods for Inhibition of Cancers” (THE OHIO STATE UNIVERSITY RESEARCH FOUNDATION, priority 2009, published 2012).

What was measured:
Assay type in all cases: cell-based, human
[1] = test system: pSTAT3 (Tyr705 and Ser727) and phospho-JAK1 (Tyr1022/1023) in A2780 cells; test: Immunoblot and immunoprecipitation of JAK/STAT3 signaling; settings: 10 or 20 μmol/L, 24 hours
Protocol: (§1) Equal volumes of DMSO (0.1% v/v) were present in each treatment. Following treatment, the cell lysates were prepared in non-denaturing lysis buffer containing 10 mmol/L Tris-HCl (pH 7.4), 150 mmol/L NaCl, 1% Triton X-100, 1 mmol/L EDTA, 1 mmol/L EGTA, 0.3 mmol/L phenylmethyl-sulfonyl fluoride, 0.2 mmol/L sodium orthovanadate, 0.5% NP40, 1 μg/mL aprotinin, and 1 μg/mL leupetin. The lysates were centrifuged at 10,000×g for 20 minutes at 4° C. and the supernatant was separated. The protein concentration in the lysates was determined using a Pierce detergent-compatible protein assay kit. For Western blotting, 25 to 50 μg of protein lysate per sample were denatured in 2×SDS-PAGE sample buffer and subjected to SDS-PAGE on a 10% tris-glycine gel. The separated proteins were transferred to a polyvinylidene fluoride membrane and were blocked with 5% nonfat milk powder (w/v) in TBST (10 mmol/L Tris, 10 mmol/L NaCl, 0.1% Tween 20) for 1 hour at room temperature or overnight at 4° C. The membranes were then incubated with the primary antibodies. The bound antibodies were detected with horseradish peroxidase-labeled sheep anti-mouse IgG or horseradish peroxidase-labeled donkey anti-rabbit IgG using an enhanced chemiluminescence detection system (ECL Advanced kit). Protein expressions were determined using the Image Gauge v. 3.45 software.

[2] = test system: USP2a, ubiquitinated FAS and FAK in A2780 and SKOV3 cells; test: Ubiquitination of FAS/FAK and USP2a level
Protocol: FIG. 15: HO-3867 downregulates FAS and FAK levels via proteasome pathways. To catch any ubiquitinated proteins in the cell lysates, agarose beads coated with domains having affinity to ubiquitin were incubated in the lysates at 4° C. for 2 hours. After washing the beads, the ubiquitinated proteins were subjected to immunoblot for FAS and FAK and blotted by the ubiquitin antibody. A predominant ubiquitination of FAS and FAK is seen in the HO-3867-treated A2780 and SKOV3 cells under proteasomal inhibition using MG 132 (50 μM).
The intracellular amount of rapid-turnover proteins, such as FAS and FAK, is tightly regulated by the ubiquitin-dependent proteolytic pathway. The fast and significant decrease in the FAS and FAK expressions observed in the HO-3867-treated cells prompted us to check any involvement of ubiquitin-dependent degradation mechanism.

[3] = test system: FAS and FAK in A2780 and SKOV3 cells; test: FAS and FAK protein and mRNA expression in ovarian cancer cells; settings: 10 μM
Protocol: Cells in RPMI 1640 medium were treated with DMSO (control) or HO-3867 (10 μM) for 24 h. Equal volumes of DMSO (0.1% v/v) were present in each treatment. Following treatment, the cell lysates were prepared in nondenaturing lysis buffer containing 10-mM Tris-HCl (pH 7.4), 150-mM NaCl, 1% Triton X-100, 1-mM EDTA, 1-mM EGTA, 0.3-mM phenylmethylsulfonyl fluoride, 0.2-mM sodium orthovanadate, 0.5% NP40, 1-μg/ml aprotinin, and 1-μg/ml leupetin. The lysates were centrifuged at 10,000×g for 20 min at 4° C., and the supernatant was separated. The protein concentration in the lysates was determined using a Pierce detergent-compatible protein assay kit. For Western blotting, 25 to 50 μg of protein lysate per sample was denatured in 2×SDS-PAGE sample buffer and subjected to SDS-PAGE on a 10% tris-glycine gel. […] The bound antibodies were detected with horseradish peroxidase (HRP)-labeled sheep anti-mouse IgG or HRP-labeled donkey anti-rabbit IgG using an enhanced chemiluminescence detection system (ECL Advanced kit). Protein expressions were determined using Image Gauge version 3.45.
Total RNA isolated from ovarian tumor tissue was prepared with TRIzol (Life Technologies, Grand Island, N.Y.) according to the manufacturer's instructions. RNA quantification was done using spectrophotometry. […]

[4] = test system: p53, p21, p27, cdk2, and cyclin A in A2780 cells; test: Immunoblot of cell cycle regulatory proteins; settings: Western blot
Protocol: as §1, with “Cells in RPMI 1640 were treated with DMSO (control) or HO-3867 (10 μmol/L) for 24 hours. Equal” for “Equal”, “The membranes were then incubated with the primary antibodies.” left out, “3.45 software.” left out

A2780 cells = test: Cell viability by MTT assay, A2780 cells; settings: 24 hours, dose series
Protocol: Cell viability was determined by a colorimetric assay using MTT. In the mitochondria of living cells, yellow MTT undergoes a reductive conversion to formazan, producing a purple color. Cells, grown to […] confluence in 75-mm flasks, were trypsinized, counted, seeded in 96-well plates with an average population of 7,000 cells per well, incubated overnight, and then treated with curcumin, H-4073, or HO-3867 for 24 hours. All experiments were done using eight replicates and, repeated at least thrice.

Question: With `CC1(C)C=C(CN2C/C(=C\c3ccc(F)cc3)C(=O)/C(=C/c3ccc(F)cc3)C2)C(C)(C)N1O` [HO-3867, 1-[(1-oxyl-2,2,5,5-tetramethyl-2,5-dihydro-1H-pyrrol-3-yl)methyl]-(3E,5E)-3,5-bis(4-fluorobenzylidene)piperidin-4-one] as the compound, how does the “pSTAT3 (Tyr705 and Ser727) levels” value [1] read?
Answer: significantly decreased

Question: And the “phosphor-JAK1 (Tyr1022/1023)” value ([1]; versus unexposed controls)?
Answer: substantial decrease

Question: What about the USP2a level [2] of the same compound?
Answer: clearly downregulated

Question: And the “polyubiquitination on FAS and FAK” value ([2]; co-incubation with MG-132)?
Answer: enhanced polyubiquitination

Question: What about the “FAS and FAK, protein and expression levels” value [3] of the same compound?
Answer: incubation-time-dependent inhibition

Question: And the “cdk2 and cyclin-A levels” value [4]?
Answer: significantly decreased

Question: And the “levels of p53 and p21” value [4]?
Answer: significantly upregulated

Question: And the “cytotoxicity, viability of A2780 cells” value (A2780 cells)?
Answer: significantly higher toxicity when compared with curcumin
